This note sets out measurements from patent US20180318383A1, “PEPTIDE HAVING NEURONAL LOSS PREVENTION AND REGENERATION EFFECTS, AND COMPOSITION CONTAINING SAME” (GEMVAX & KAEL CO., LTD., priority 2015, published 2018).

The test system of experiment [1] is NSCs. Description: Apoptosis of NSCs by DAPI and TUNEL staining. The settings on record: 20 μM Aβ25-35 + PEP1 up to 100 μM, 48 hours; p<0.05. It counts as cell-based, rat. As for the experimental part: NSCs were placed onto collagen-coated glass coverslips with a diameter of 13 mm, and then treated in the manner described below: 1) […]; 2) treated with only 20 μM Aβ25-30; or 3) treated with 20 μM Aβ25-30 and PEP1 at each concentration (1, 10, 50, or 100 μM) for 48 hours.
The cells were washed with PBS and fixed with 4% paraformaldehyde for 20 minutes.
TUNEL staining is a method used to confirm apoptosis. To observe an intact, condensed or fragmented nucleus, the cells that have been stained with TUNEL were treated with 100 μg/ml DAPI for 20 minutes to stain the nucleus, and then mounted on a glass slide to which a DAPI-mixed mounting medium was applied.
The cells were observed under a fluorescence microscope and observed at excitation fluorescence wavelengths corresponding to DAPI and TUNEL.

Experiment [2] relates to NSCs. Kind of experiment: Proteomics and antibody microarray of NSCs. The settings on record: 20 μM Aβ25-35 + 10 μM PEP1, 48 hours, antibody microarray. It counts as cell-based, rat. As for the experimental part: The cultured NSCs were washed with cold PBS twice, and disrupted in a sample lysis buffer using a sonicator for 10 seconds. In addition, the cells were disrupted again for a further 1 hour at room temperature. After centrifugation at 15° C. and 15000 g for 1 hour, a non-water-soluble sample was eliminated, and only water-soluble samples were subjected to two-dimensional electrophoresis. A protein concentration was quantified by a Bradford method.
200 μg of a protein sample was loaded on an Immobiline DryStrip gel. […] was performed at 20° C. For electron focusing, a voltage was increased from 150 volts to 3500 volts over 3 hours to allow the sample to enter the gel. Before entering two-dimensionally, the sample was cultured in an equilibration buffer for 10 minutes. […]
For quantitative analysis, images were analyzed with a PDQuest system. […]
To identify a protein through peptide mass fingerprinting, a protein spot was cleaved into smaller peptides using trypsin, well mixed with a-cyano-4-hydroxycinnamic acid in 50% acetonitrile/0.1% TFA, and then analyzed with MALDI-TOF. […]
For antibody microarray analysis, a panorama antibody cell signaling kit was used. […] Array slides were read using a scanner, and results from the obtained scans were analyzed using an analysis program.

Another experiment relates to oligomer Aβ. Kind of experiment: Expression level of oligomer Aβ in 3XTg-AD mice (western blotting). It counts as in vivo. The settings on record: hippocampus and whole brain; vs control and Donepezil. As for the experimental part: To test the efficacy of PEP1 on AD, AD transgenic mice (3XTg-AD) were purchased from Jackson Laboratory. Genetic characteristics of the transgenic mice are as follows: B6; 129-Psen1tm1Mpm Tg(APPSwe, tauP301L)1Lfa/Mmjax. […] One week after mice were confirmed as pregnant, new mice were delivered and weaned for 3 weeks. Two weeks later, mature mice were obtained.
During the preliminary breeding and the entire period of the experiment, a temperature was maintained at 23±2° C. and a relative humidity was maintained at 60±10%, and then the mice were raised under a 12-hour dark/light cycle. Experimental animals were divided into five groups, and each group included 10 animals. The divided experimental groups are as follows. […]
The PEP1, physiological saline, donepezil and scramble peptide were subcutaneously injected at each concentration three times a week for two months from the age of 12 months, and then two months after the injection, cognitive/memory behavior tests (passive avoidance test and Y maze test) were performed to examine a degree of improvement in cognitive function and memory function. After the brain was extracted to separate the hippocampus, the amounts of amyloid beta in the hippocampus and the whole brain, and the amounts of an amyloid beta oligomer and NFT generated by tau hyperphosphorylation were determined by western blotting and immunostaining. […]
On the technique in general: In western blotting, separated proteins are transferred to a membrane and probed.

For the sequence “EARPALLTSRLRFIPK (homo sapiens) [PEP1, hTERT-derived peptide consisting of 16 amino acids, telomerase location [611-626]]”, in the experiment on NSCs [1], the “degree of apoptosis of NSCs” value is given as “significantly decreased”. The “phosphorylated proteins associated with proliferation” value in the experiment on NSCs [2] is “recovered”. Also, the “expression level of oligomer Aβ” value with oligomer Aβ is reported as “decreased”.
